From patent publication US20190212340A1, “AN ELISA-LIKE ASSAY FOR QUANTIFYING ENZYMATIC ACTIVITIES OF MONO-ADP-RIBOSYLTRANSFERASES” (University of Southern California, priority 2016, published 2019)

Experiments:
PARP15 [1] = biological target: T1, PARP15 (Homo sapiens, UniProt Q460N3); test: MLISA inhibition of PARP15-catalyzed automodification (Experiment No. 2); assay type: biochemical; conditions: at concentrations up to 100 μM
T1 construct: The catalytic domains of PARP15 (residue 481-678); His6 (N); Factor Xa cleavage site (IEGR) (N); made in house; host or cells: E. coli BL21 (DE3)
T1 sequence (Q460N3 with tags, fused parts or gaps): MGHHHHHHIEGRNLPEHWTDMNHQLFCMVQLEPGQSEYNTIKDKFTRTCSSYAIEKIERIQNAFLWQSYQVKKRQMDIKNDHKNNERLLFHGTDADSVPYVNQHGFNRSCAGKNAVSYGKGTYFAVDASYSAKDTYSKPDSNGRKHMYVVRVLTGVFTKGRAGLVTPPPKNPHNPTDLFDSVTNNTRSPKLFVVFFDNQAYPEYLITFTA

PARP15 [2] = biological target: T2, PARP15 (Homo sapiens, UniProt Q460N3); conditions: Karlberg et al., J. Biol. Chem. 2015; read-out: Km value of PARP15 reported previously; cited from earlier work
T2 sequence (Q460N3 1-678): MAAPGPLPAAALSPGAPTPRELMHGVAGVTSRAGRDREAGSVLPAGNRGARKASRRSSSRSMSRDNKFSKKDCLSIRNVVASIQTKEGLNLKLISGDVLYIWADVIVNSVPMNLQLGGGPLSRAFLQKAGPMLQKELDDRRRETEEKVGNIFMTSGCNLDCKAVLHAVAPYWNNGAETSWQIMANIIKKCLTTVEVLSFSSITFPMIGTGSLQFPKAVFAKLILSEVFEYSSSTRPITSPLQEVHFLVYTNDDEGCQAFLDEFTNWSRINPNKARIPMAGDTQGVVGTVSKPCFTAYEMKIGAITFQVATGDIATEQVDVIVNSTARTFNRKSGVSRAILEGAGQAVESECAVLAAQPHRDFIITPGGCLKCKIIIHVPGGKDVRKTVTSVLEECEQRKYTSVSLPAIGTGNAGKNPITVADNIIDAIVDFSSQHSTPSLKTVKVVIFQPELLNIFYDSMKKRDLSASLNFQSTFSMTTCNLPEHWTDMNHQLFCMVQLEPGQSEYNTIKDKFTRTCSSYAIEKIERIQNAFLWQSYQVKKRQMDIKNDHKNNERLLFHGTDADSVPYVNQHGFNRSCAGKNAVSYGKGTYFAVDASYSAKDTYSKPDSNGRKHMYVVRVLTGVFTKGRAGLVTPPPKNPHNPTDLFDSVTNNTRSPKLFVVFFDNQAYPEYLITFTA

PARP15 [3] = biological target: T1, PARP15; test: M2-based ELISA plate inhibition assay, PARP15 (Experiment No. 1); assay type: biochemical; conditions: 500 nM PARP15, 500 μM NAD+, inhibitors at 1, 10 and 100 μM, 2 h
Procedure: The general scheme of ELISA assay is illustrated in FIG. 1. PARP automodification reactions (100 μL) were conducted in 96-wells plate together with the coating process for 2 hours at room temperature. After five times of 200 μL PBST washes (0.1% v/v Tween 20 in PBS buffer, pH 7.4) per well the plates were blocked with 3% BSA dissolved in PBS buffer for 2 hours under room temperature followed by five washes of 200 μL PBST per well. The plates were incubated for 1 hour upon addition of 100 μL of 0.1 μM Macrodomain 2 and then washed five times with 200 μL PBST per well. […] The fluorescence signal was developed by addition of 75 μL QuantaBlu Fluorogenic Peroxidase Substrate and recorded by Synergy H1 Multi-Mode Reader (BioTek, VT). Kinetic parameters were calculated using nonlinear regression Michaelis-Menten model using GraphPad Prism (GraphPad Software). […]
96-well ELISA plates were coated with reactions in triplicates consisting of PARP enzymes (PARP14: 1 μM; PARP15: 500 nM) with various inhibitors at different concentrations (1, 10 and 100 μM) in addition to 500 μM of NAD^+ in Reaction Buffer (50 mM Tris-HCl, pH 7.4, 2 mM dTT). […] To control for any potential inhibition activity related to DMSO, wells containing 1% DMSO were analyzed in triplicates alongside with no inhibitor control wells and 100 μM control inhibitor wells.

| SMILES | inhibition effects on PARP15 activity (PARP15 [1]) | also measured |
| --- | --- | --- |
| Nc1ncnc2[nH]cnc12 [Adenine] | no significant inhibition effects |  |
| NC(=O)c1ccc[n+]([C@@H]2O[C@H](COP(=O)([O-])OP(=O)(O)OC[C@H]3O[C@@H](n4cnc5c(N)ncnc54)[C@H](O)[C@@H]3O)[C@@H](O)[C@H]2O)c1 [NAD^+, Nicotinamide adenine dinucleotide] |  | Km (PARP15 [2]): 5.8 ± 1.9 µM |
| O=C(c1cc(Cc2n[nH]c(=O)c3ccccc23)ccc1F)N1CCN(C(=O)C2CC2)CC1 [Olaparib] |  | inhibition of PARP15 (fluorescence intensity) (PARP15 [3]): better inhibitory effect at 100 μM but it is less potent comparing to other inhibitor |

More lines, main results first:

| inhibition effects on PARP15 activity (PARP15 [1]) | SMILES | also measured |
| --- | --- | --- |
| no significant inhibition effects | CN(C)c1ccc(O)c2c1C[C@H]1C[C@H]3[C@H](N(C)C)C(O)=C(C(N)=O)C(=O)[C@@]3(O)C(O)=C1C2=O [Minocin] |  |
| no significant inhibition effects | O=c1[nH]c(-c2ccc(C(F)(F)F)cc2)nc2c1CSCC2 [XAV939] |  |
